Measurements from patent EP4813383A1, “USE OF TAFAMIDIS AND PHARMACEUTICALLY ACCEPTABLE SALT THEREOF IN PREVENTION, ALLEVIATION, OR TREATMENT OF DISEASES ASSOCIATED WITH HIF-2a” (Huaya Jiyuan (Shenzhen) Pharmaceutical Co., Ltd., priority 2024, dated 2025).
pEC50: −log10 of the molar value. Structures can show the parent of a compound that is named as a salt.

Target: T1, HIF-2α (Homo sapiens, UniProt Q99814)
T1 construct: 786-O is a renal carcinoma cell line that predominantly expresses HIF-2α and lacks functional HIF-1α; endogenous in cells; host or cells: 786-O cells stably carrying an HRE-driven luciferase reporter
T1 sequence (Q99814 whole entry): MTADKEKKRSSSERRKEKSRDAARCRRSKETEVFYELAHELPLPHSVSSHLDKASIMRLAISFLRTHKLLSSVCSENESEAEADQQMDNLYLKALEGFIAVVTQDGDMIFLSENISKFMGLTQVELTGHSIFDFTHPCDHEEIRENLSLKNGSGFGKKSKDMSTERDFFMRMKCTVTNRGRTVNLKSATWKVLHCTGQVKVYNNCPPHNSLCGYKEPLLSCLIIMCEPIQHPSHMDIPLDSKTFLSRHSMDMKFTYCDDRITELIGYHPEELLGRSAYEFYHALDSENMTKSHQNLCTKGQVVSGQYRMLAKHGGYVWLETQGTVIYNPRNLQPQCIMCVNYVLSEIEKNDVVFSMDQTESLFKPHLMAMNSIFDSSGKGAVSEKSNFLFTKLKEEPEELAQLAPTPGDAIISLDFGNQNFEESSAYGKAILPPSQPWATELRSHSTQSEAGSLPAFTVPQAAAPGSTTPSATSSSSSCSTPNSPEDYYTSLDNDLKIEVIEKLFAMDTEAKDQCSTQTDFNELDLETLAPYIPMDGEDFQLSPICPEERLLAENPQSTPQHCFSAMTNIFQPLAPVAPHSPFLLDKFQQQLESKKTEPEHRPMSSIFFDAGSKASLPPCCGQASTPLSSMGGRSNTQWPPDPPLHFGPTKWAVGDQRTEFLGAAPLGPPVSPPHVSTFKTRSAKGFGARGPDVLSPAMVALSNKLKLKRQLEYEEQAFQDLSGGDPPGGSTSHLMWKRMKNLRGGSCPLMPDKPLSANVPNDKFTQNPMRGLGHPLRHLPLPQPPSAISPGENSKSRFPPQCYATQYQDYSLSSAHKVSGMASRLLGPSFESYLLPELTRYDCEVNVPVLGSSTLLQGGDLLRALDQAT
T1 sequence (P27540 whole entry partner): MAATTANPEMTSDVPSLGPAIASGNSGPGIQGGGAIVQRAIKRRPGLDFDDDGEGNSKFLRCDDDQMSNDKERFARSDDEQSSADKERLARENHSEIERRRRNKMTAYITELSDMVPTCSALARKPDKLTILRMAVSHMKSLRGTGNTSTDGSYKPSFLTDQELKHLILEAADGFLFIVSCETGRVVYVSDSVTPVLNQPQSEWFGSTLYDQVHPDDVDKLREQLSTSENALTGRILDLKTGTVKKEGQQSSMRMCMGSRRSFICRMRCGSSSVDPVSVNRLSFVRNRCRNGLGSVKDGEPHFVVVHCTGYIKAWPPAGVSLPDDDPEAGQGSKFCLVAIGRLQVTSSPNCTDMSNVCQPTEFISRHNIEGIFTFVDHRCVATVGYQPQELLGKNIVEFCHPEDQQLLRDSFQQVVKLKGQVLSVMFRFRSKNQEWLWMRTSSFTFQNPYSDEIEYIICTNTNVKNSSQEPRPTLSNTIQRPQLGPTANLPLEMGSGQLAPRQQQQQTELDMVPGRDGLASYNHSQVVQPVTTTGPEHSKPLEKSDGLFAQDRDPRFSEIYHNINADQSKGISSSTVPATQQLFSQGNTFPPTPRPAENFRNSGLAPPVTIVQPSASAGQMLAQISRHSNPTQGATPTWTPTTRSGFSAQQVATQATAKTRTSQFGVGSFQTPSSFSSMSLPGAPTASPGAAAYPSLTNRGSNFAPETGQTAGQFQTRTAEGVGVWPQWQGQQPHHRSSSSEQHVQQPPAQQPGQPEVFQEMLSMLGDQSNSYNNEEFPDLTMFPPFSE
Assay: Luciferase reporter gene assay (HRE-driven luciferase in stably transfected 786-O cells)
Format: cell-based
Text: Experimental principles: 786-O is a renal carcinoma cell line that predominantly expresses HIF-2α and lacks functional HIF-1α. This characteristic makes 786-O cells an ideal model for studying HIF-2α transcriptional activity and related signaling pathways. In the luciferase reporter gene assay, a 786-O monoclonal cell line that stably expresses hypoxia response element (HRE)-driven luciferase (Luc) activity is obtained through puromycin selection. The HIF-2α agonist promotes dimerization of HIF-2α and HIF-β, and activates an HRE promoter. By measuring fluorescence intensity, luciferase activity can be determined, thereby assessing the ability of the HIF-2α agonist to promote transcription.
Experimental method: A total of 6000 stably transfected 786-O cells stably containing HRE and Luc sequences are seeded in each well of a 96-well plate, and 100 µL of RPMI-1640 culture medium containing 10% fetal bovine serum is added to each well. After 24 hours, a compound at a corresponding concentration is added to each well. A blank group is set as a control. Only a DMSO solvent is added in the well of the blank group. For initial compound screening, both tafamidis and tafamidis meglumine are tested at two concentrations: 2 µM and 20 µM. For concentration-gradient determination, each concentration is tested in triplicate. After co-incubation for 24 hours, the culture medium is discarded, and 20 µL of firefly luciferase reporter gene cell lysis buffer (RG126M, Beyotime) is added to each well. The 96-well plate is shaken on a microplate shaker for 10 minutes. After shaking, 10 µL of lysate is transferred into a white opaque plate, and then 10 µL of Steady-Lumi™ firefly luciferase assay reagent (RG058S, Beyotime) is added to each well. Finally, luminescence is measured using a microplate reader (Agilent Synergy Neo2). E20 represents the effect of the compound at a 20 µM concentration, and is calculated as: E20 = fluorescence value of the 20 µM well ÷ fluorescence value of the blank control × 100%. E2 represents the effect of the compound at a 2 µM concentration, and is calculated as: E2 = fluorescence value of the 2 µM well ÷ fluorescence value of the blank control × 100%. EC50 is the compound concentration at which the agonistic efficacy is increased by 50% relative to the blank control. The agonistic efficacy of a compound is determined by calculating the concentration (EC50) required to achieve a 50% increase in the fluorescence activity relative to the blank control and a maximum activation percentage (Emax). The maximum activation percentage (Emax) of an agonist refers to a ratio, expressed as a percentage, of the fluorescence value corresponding to the maximal effect (observed maximal response) induced when the agonist concentration reaches receptor-binding saturation in a particular receptor system, to the fluorescence value of the receptor system in the absence of agonist. In this experiment, Vyndaqel is directly used in place of tafamidis meglumine.

With `O=C(O)c1ccc2nc(-c3cc(Cl)cc(Cl)c3)oc2c1` [tafamidis meglumine, 1-deoxy-1-(methylamino)-D-glucitol salt of 2-(3,5-dichlorophenyl)-1,3-benzoxazole-6-carboxylic acid] the “agonistic efficacy at a 2 µM concentration (E2)” value (2 µM, 24 hours co-incubation, fluorescence value as % of blank control (DMSO)) was 122%, the “agonistic efficacy at a 20 µM concentration (E20)” value (20 µM, 24 hours co-incubation, fluorescence value as % of blank control (DMSO)) was 223% and the pEC50 (EC50, concentration required for a 50% increase in fluorescence activity relative to the blank control, 24 hours) was 6.01. For the same compound, the “Emax (maximum activation percentage)” value (maximal response as % of fluorescence without agonist) was 228%.
